This is an account of results in patent US7910751B2, “Heterocyclidene acetamide derivative” (Mochida Pharmaceutical Co., Ltd., priority 2005, dated 2011).

The target of this assay is T1, human TRPV1 (Homo sapiens, UniProt Q8NER1).
T1 construct: expressed in transfected cells; host or cells: CHO-K1
T1 sequence (Q8NER1 whole entry): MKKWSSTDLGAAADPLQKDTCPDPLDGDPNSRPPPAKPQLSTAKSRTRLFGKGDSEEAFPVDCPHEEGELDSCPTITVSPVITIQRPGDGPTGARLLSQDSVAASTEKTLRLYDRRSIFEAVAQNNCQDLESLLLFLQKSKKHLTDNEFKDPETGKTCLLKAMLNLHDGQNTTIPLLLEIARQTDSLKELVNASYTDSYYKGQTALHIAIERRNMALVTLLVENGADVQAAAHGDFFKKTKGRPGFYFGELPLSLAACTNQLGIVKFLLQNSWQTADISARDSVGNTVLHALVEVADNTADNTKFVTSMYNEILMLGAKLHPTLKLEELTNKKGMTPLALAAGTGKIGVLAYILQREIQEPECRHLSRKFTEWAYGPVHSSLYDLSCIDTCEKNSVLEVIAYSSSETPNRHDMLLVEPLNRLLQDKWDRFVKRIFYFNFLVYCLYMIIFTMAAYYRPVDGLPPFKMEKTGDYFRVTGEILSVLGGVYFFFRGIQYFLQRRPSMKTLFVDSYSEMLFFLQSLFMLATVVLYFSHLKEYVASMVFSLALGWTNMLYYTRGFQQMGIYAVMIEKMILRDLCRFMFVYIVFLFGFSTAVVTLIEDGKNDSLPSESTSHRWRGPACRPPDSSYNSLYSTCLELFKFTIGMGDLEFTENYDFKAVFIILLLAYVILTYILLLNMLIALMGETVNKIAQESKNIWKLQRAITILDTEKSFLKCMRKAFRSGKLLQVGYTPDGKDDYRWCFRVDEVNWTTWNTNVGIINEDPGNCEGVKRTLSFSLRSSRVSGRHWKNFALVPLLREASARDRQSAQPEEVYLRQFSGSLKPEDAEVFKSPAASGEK
Description: Measurement of capsaicin-induced Ca influx in human TRPV1 transformed CHO cell line using FDSS-6000. As to conditions: concentration at which the capsaicin concentration-reaction curve is shifted two times to the right, human TRPV1 transformed CHO cells. It counts as cell-based.
For the molecule `CCn1c(NC(=O)/C=C2\CCCOc3cc(C(F)(F)F)ccc32)nc2ccccc21` [Example 43, (E)-N-(1-ethyl-1H-benzo[d]imidazolo-2-yl)-2-(8-trifluoromethyl-3,4-dihydrobenzo[b]oxepin-5(2H)-ylidene)acetamide], the “A2 VALUE” is “B (compounds having an A2 value of 100 nM or more are represented by B)”.

With `O=C(/C=C1\CCCOc2cc(C(F)(F)F)ccc21)Nc1ccc2nccnc2c1` [Example 12, (E)-2-(8-trifluoromethyl-3,4-dihydrobenzo[b]oxepin-5(2H)-ylidene)-N-(quinoxalin-6-yl)acetamide], the “A2 VALUE” was “A (compounds of the present invention having an A2 value of less than 100 nM are represented by A)”.

With `O=C(/C=C1\CCCOc2cc(C(F)(F)F)ccc21)Nc1ccc2c(c1)C(=O)CC2` [Example 157, (E)-2-(8-trifluoromethyl-3,4-dihydrobenzo[b]oxepin-5(2H)-ylidene)-N-(indan-1-on-6-yl)acetamide], the “A2 VALUE” is “A (compounds of the present invention having an A2 value of less than 100 nM are represented by A)”.

Consider `O=C(/C=C1\CCCOc2cc(C(F)(F)F)ccc21)Nc1ccc(Cc2ccncc2)cc1` [Example 29, (E)-2-(8-trifluoromethyl-3,4-dihydrobenzo[b]oxepin-5(2H)-ylidene)-N-(4-((pyridin-4-yl)methyl)phenyl)acetamide], for which the “A2 VALUE” is given as “B (compounds having an A2 value of 100 nM or more are represented by B)”.

As to `Cc1ccc(S(=O)(=O)N2CCC/C(=C\C(=O)Nc3ccc4cccnc4c3)c3ccc(C(F)(F)F)cc32)cc1` [Example 194, (E)-2-(1-(4-methylbenzenesulfonyl)-8-trifluoromethyl-1,2,3,4-tetrahydro-5H-benzo[b]azepin-5-ylidene)-N-(quinolin-7-yl)acetamide], the “A2 VALUE” is given as “B (compounds having an A2 value of 100 nM or more are represented by B)”.

On to `O=C(/C=C1\CCN(C(=O)c2cccnc2)c2cc(C(F)(F)F)ccc21)Nc1ccc2cccnc2c1` [Example 55, (E)-2-(7-trifluoromethyl-2,3-dihydro-1-nicotinoylquinolin-4(1H)-ylidene)-N-(quinolin-7-yl)acetamide], for which the “A2 VALUE” is reported as “A (compounds of the present invention having an A2 value of less than 100 nM are represented by A)”.

`O=C(/C=C1\CCOc2cc(OC(F)(F)F)ccc21)Nc1cccc2c1CC(O)CN2` (centres unmarked) [Example 211, (E)-2-(7-trifluoromethoxy-chroman-4-ylidene)-N-(3-hydroxy-1,2,3,4-tetrahydroquinolin-5-yl)acetamide]: the “A2 VALUE” is listed as “A (compounds of the present invention having an A2 value of less than 100 nM are represented by A)”.

For `O=C(/C=C1\CCCOc2cc(C(F)(F)F)ccc21)NC1CCc2cccnc2C1` (centres unmarked) [Example 10, (E)-2-(8-trifluoromethyl-3,4-dihydrobenzo[b]oxepin-5(2H)-ylidene)-N-(5,6,7,8-tetrahydroquinolin-7-yl)acetamide], the “A2 VALUE” is “A (compounds of the present invention having an A2 value of less than 100 nM are represented by A)”.

On to `O=C(/C=C1\CCCOc2nc(C(F)(F)F)ccc21)Nc1cccc2c1CC(O)CC2` (centres unmarked) [Example 239, (E)-2-(8-trifluoromethyl-2,3,4,5-tetrahydrooxepino[2,3-b]pyridin-5-ylidene)-N-(7-hydroxy-5,6,7,8-tetrahydronaphthalen-1-yl)acetamide], for which the “A2 VALUE” was “A (compounds of the present invention having an A2 value of less than 100 nM are represented by A)”.

Turning to `O=C(/C=C1\CCN(C(=O)C2CCCC2)c2cc(C(F)(F)F)ccc21)Nc1ccc2cccnc2c1` [Example 73, (E)-2-(1-cyclopentanecarbonyl-7-trifluoromethyl-2,3-dihydroquinolin-4(1H)-ylidene)-N-(quinolin-7-yl)acetamide], the “A2 VALUE” is reported as “A (compounds of the present invention having an A2 value of less than 100 nM are represented by A)”.

For the molecule `Cc1nc(-c2ccc(Cl)cc2)sc1CNC(=O)/C=C1\CCCOc2cc(C(F)(F)F)ccc21` [Example 39, (E)-N-((2-(4-chlorophenyl)-4-methylthiazol-5-yl)methyl)-2-(8-trifluoromethyl-3,4-dihydrobenzo[b]oxepin-5(2H)-ylidene)acetamide], the “A2 VALUE” is on record as “B (compounds having an A2 value of 100 nM or more are represented by B)”.

With `O=C(/C=C1\CCCOc2cc(C(F)(F)F)ccc21)Nc1ccc2c(c1)NCCC2` [Example 167, (E)-2-(8-trifluoromethyl-3,4-dihydrobenzo[b]oxepin-5(2H)-ylidene)-N-(1,2,3,4-tetrahydroquinolin-7-yl)acetamide], the “A2 VALUE” is given as “A (compounds of the present invention having an A2 value of less than 100 nM are represented by A)”.

For the molecule `O=C(/C=C1\CCN(c2cccnc2)c2cc(C(F)(F)F)ccc21)Nc1ccc2cccnc2c1` [Example 58, (E)-2-(7-trifluoromethyl-2,3-dihydro-1-(pyridin-3-yl)quinolin-4(1H)-ylidene)-N-(quinolin-7-yl)acetamide], the “A2 VALUE” is “A (compounds of the present invention having an A2 value of less than 100 nM are represented by A)”.

Consider `O=C(/C=C1\CC2(CCC2)Oc2cc(C(F)(F)F)ccc21)Nc1cccc2c1CC(O)CN2` (centres unmarked) [Example 252, (E)-N-(3-hydroxy-1,2,3,4-tetrahydroquinolin-5-yl)-2-(7-trifluoromethyl-2,2-cyclobutylchroman-4-ylidene)acetamide], for which the “A2 VALUE” is listed as “A (compounds of the present invention having an A2 value of less than 100 nM are represented by A)”.

`CC1(C)C/C(=C\C(=O)Nc2cccc3c2CC(O)CC3)c2ccc(C(F)(F)F)cc2O1` (centres unmarked) [Example 243, (E)-2-(7-trifluoromethyl-2,2-dimethylchroman-4-ylidene)-N-(7-hydroxy-5,6,7,8-tetrahydronaphthalen-1-yl)acetamide]: the “A2 VALUE” is listed as “A (compounds of the present invention having an A2 value of less than 100 nM are represented by A)”.

With `O=C(/C=C1\CCCOc2cc(C(F)(F)F)ccc21)NCc1ccccc1N1CCOCC1` [Example 36, (E)-2-(8-trifluoromethyl-3,4-dihydrobenzo[b]oxepin-5(2H)-ylidene)-N-(2-morpholinophenyl)methyl-acetamide], the “A2 VALUE” is on record as “B (compounds having an A2 value of 100 nM or more are represented by B)”.

With `O=C(/C=C1\CCOc2cc(OC(F)(F)C(F)F)ccc21)Nc1cccc2c1CC(O)CN2` (centres unmarked) [Example 213, (E)-2-(7-(1,1,2,2-tetrafluoroethoxy)-chroman-4-ylidene)-N-(3-hydroxy-1,2,3,4-tetrahydroquinolin-5-yl)acetamide], the “A2 VALUE” was “A (compounds of the present invention having an A2 value of less than 100 nM are represented by A)”.

In the case of `O=C(/C=C1\CCCN(CC2CCCC2)c2cc(C(F)(F)F)ccc21)Nc1ccc2cccnc2c1` [Example 197, (E)-2-(1-cyclopentylmethyl-8-trifluoromethyl-1,2,3,4-tetrahydro-5H-benzo[b]azepin-5-ylidene)-N-(quinolin-7-yl)acetamide], the “A2 VALUE” is on record as “A (compounds of the present invention having an A2 value of less than 100 nM are represented by A)”.

`O=C(/C=C1\CCCOc2cc(C(F)(F)F)ccc21)Nc1cccc2c1CCC2O` (centres unmarked) [Example 160, (E)-2-(8-trifluoromethyl-3,4-dihydrobenzo[b]oxepin-5(2H)-ylidene)-N-(indan-1-ol-4-yl)acetamide]: the “A2 VALUE” was “A (compounds of the present invention having an A2 value of less than 100 nM are represented by A)”.

Consider `O=C(/C=C1\CCCOc2cc(C(F)(F)F)ccc21)Nc1ccnc2ncnn12` [Example 44, (E)-N-([1,2,4]triazolo[1,5-a]pyrimidin-7-yl)-2-(8-trifluoromethyl-3,4-dihydrobenzo[b]oxepin-5(2H)-ylidene)acetamide], for which the “A2 VALUE” is “B (compounds having an A2 value of 100 nM or more are represented by B)”.

In the case of `O=C1CCc2cccc(NC(=O)/C=C3\CCOc4cc(C(F)(F)F)ccc43)c2C1` [Example 119, (E)-N-(7-oxo-5,6,7,8-tetrahydronaphthalen-1-yl)-2-(7-trifluoromethyl-chroman-4-ylidene)acetamide], the “A2 VALUE” is recorded as “A (compounds of the present invention having an A2 value of less than 100 nM are represented by A)”.

As for `O=C(/C=C1\CCN(C(=O)CC2CCCC2)c2cc(C(F)(F)F)ccc21)Nc1ccc2cccnc2c1` [Example 102, (E)-2-(7-trifluoromethyl-2,3-dihydro-1-(cyclopentylacetyl)quinolin-4(1H)-ylidene)-N-(quinolin-7-yl)acetamide], the “A2 VALUE” is “A (compounds of the present invention having an A2 value of less than 100 nM are represented by A)”.

As to `O=C(/C=C1\CCN(C(=O)c2ccco2)c2cc(C(F)(F)F)ccc21)Nc1cccc2c1CC(O)CC2` (centres unmarked) [Example 111, (E)-2-(7-trifluoromethyl-2,3-dihydro-1-(2-furancarbonyl)quinolin-4(1H)-ylidene)-N-(7-hydroxy-5,6,7,8-tetrahydronaphthalen-1-yl)acetamide], the “A2 VALUE” is listed as “A (compounds of the present invention having an A2 value of less than 100 nM are represented by A)”.

With `CCCCC(=O)N1CC/C(=C\C(=O)Nc2cccc3c2CC(O)CC3)c2ccc(C(F)(F)F)cc21` (centres unmarked) [Example 83, (E)-2-(1-pentanoyl-7-trifluoromethyl-2,3-dihydroquinolin-4(1H)-ylidene)-N-(7-hydroxy-5,6,7,8-tetrahydronaphthalen-1-yl)acetamide], the “A2 VALUE” is recorded as “A (compounds of the present invention having an A2 value of less than 100 nM are represented by A)”.

On to `O=C(/C=C1\CCOc2cc(C(F)(F)F)ccc21)Nc1cccc2c1CCCC2` [Example 202, (E)-2-(7-trifluoromethyl-chroman-4-ylidene)-N-(5,6,7,8-tetrahydronaphthalen-1-yl)acetamide], for which the “A2 VALUE” is given as “A (compounds of the present invention having an A2 value of less than 100 nM are represented by A)”.

As to `O=C(/C=C1\CCCOc2cc(C(F)(F)F)ccc21)Nc1n[nH]c2ccccc12` [Example 42, (E)-2-(8-trifluoromethyl-3,4-dihydrobenzo[b]oxepin-5(2H)-ylidene)-N-(1H-indazol-3-yl)acetamide], the “A2 VALUE” is given as “B (compounds having an A2 value of 100 nM or more are represented by B)”.
